Assay results published in paper PMC5218480 (PLoS ONE, 2017).

Test system: MV-4-11 cells
Assay: Gene expression microarray analysis (Affymetrix PrimeView) and GSEA
Format: cell-based, human
Set-up: RFU PODN (11730768_x_at) / Fold change /veh PODN (11730768_x_at) / RFU LINC00158 (11744669_a_at) / Fold change /veh LINC00158 (11744669_a_at) / RFU DUSP10 (11751237_a_at) / Fold change /veh DUSP10 (11751237_a_at) / RFU ID3 (11757404_x_at) / Fold change /veh ID3 (11757404_x_at) / RFU PLEKHG5 (11737974_s_at) / Fold change /veh PLEKHG5 (11737974_s_at) / RFU LRRC4B (11730491_at) / Fold change /veh LRRC4B (11730491_at) / RFU GIMAP4 (11747438_a_at) / Fold change /veh GIMAP4 (11747438_a_at) / RFU KRT8 (11758183_x_at) / Fold change /veh KRT8 (11758183_x_at) / RFU CNN1 (11734310_a_at) / Fold change /veh CNN1 (11734310_a_at) / RFU VPS37D (11726825_at) / Fold change /veh VPS37D (11726825_at) / RFU C10orf10 (11716522_x_at) / Fold change /veh C10orf10 (11716522_x_at) / RFU KIR2DL2 /// KIR2DL4 /// KIR2DL5A /// KIR2DL5B /// KIR2DS1 /// KIR2DS2 /// KIR2DS3 /// KIR2DS4 /// KIR3DL3 /// KIR3DL3 /// KIR3DS1 (11738374_at) / Fold change /veh KIR2DL2 /// KIR2DL4 /// KIR2DL5A /// KIR2DL5B /// KIR2DS1 /// KIR2DS2 /// KIR2DS3 /// KIR2DS4 /// KIR3DL3 /// KIR3DL3 /// KIR3DS1 (11738374_at) / RFU C1QL1 (11718748_at) / Fold change /veh C1QL1 (11718748_at) / RFU TMPRSS4 (11747572_a_at) / Fold change /veh TMPRSS4 (11747572_a_at) / RFU HAMP (11756126_x_at) / Fold change /veh HAMP (11756126_x_at) / RFU RNFT2 (11725882_a_at) / Fold change /veh RNFT2 (11725882_a_at) / RFU NR4A2 (11747474_a_at) / Fold change /veh NR4A2 (11747474_a_at) / RFU ABCC12 (11746883_a_at) / Fold change /veh ABCC12 (11746883_a_at) / RFU TMEM136 (11760407_x_at) / Fold change /veh TMEM136 (11760407_x_at) / RFU CLDN22 /// WWC2 (11732394_at) / Fold change /veh CLDN22 /// WWC2 (11732394_at) / RFU HLA-DPB1 (11760878_x_at) / Fold change /veh HLA-DPB1 (11760878_x_at) / RFU SPINT1 (11716480_a_at) / Fold change /veh SPINT1 (11716480_a_at) / RFU GAP43 (11754022_s_at) / Fold change /veh GAP43 (11754022_s_at) / RFU A4GNT (11735810_at) / Fold change /veh A4GNT (11735810_at) / RFU PRB3 (11715151_x_at) / Fold change /veh PRB3 (11715151_x_at) / RFU TUBB4B (11761932_at) / Fold change /veh TUBB4B (11761932_at) / RFU CAPN14 (11732068_a_at) / Fold change /veh CAPN14 (11732068_a_at) / RFU TMCC2 (11721928_a_at) / Fold change /veh TMCC2 (11721928_a_at) / RFU IRGQ (11745062_a_at) / Fold change /veh IRGQ (11745062_a_at) / RFU FAM174B (11720279_a_at) / Fold change /veh FAM174B (11720279_a_at) / RFU TMPRSS4 (11748680_a_at) / Fold change /veh TMPRSS4 (11748680_a_at) / RFU FAM212B (11763350_a_at) / Fold change /veh FAM212B (11763350_a_at) / RFU PLEKHG5 (11743358_a_at) / Fold change /veh PLEKHG5 (11743358_a_at) / RFU ZSCAN30 (11745921_a_at) / Fold change /veh ZSCAN30 (11745921_a_at) / RFU CMKLR1 (11741424_a_at) / Fold change /veh CMKLR1 (11741424_a_at) / RFU LOC101060620 /// MAPK8IP1 (11723275_at) / Fold change /veh LOC101060620 /// MAPK8IP1 (11723275_at) / RFU SPTSSB (11747773_x_at) / Fold change /veh SPTSSB (11747773_x_at) / RFU PRSS12 (11739890_at) / Fold change /veh PRSS12 (11739890_at) / RFU BIN1 (11741810_x_at) / Fold change /veh BIN1 (11741810_x_at) / RFU WNT11 (11732464_a_at) / Fold change /veh WNT11 (11732464_a_at) / RFU C10orf10 (11716521_a_at) / Fold change /veh C10orf10 (11716521_a_at) / RFU C5orf56 (11738089_at) / Fold change /veh C5orf56 (11738089_at) / RFU CYB561 (11721691_x_at) / Fold change /veh CYB561 (11721691_x_at) / RFU ANKRD19P (11752326_a_at) / Fold change /veh ANKRD19P (11752326_a_at) / RFU OR2T12 /// OR2T33 /// OR2T8 (11738714_s_at) / Fold change /veh OR2T12 /// OR2T33 /// OR2T8 (11738714_s_at) / RFU VCAN (11748164_a_at) / Fold change /veh VCAN (11748164_a_at) / RFU JSRP1 (11732532_at) / Fold change /veh JSRP1 (11732532_at) / RFU KRTAP10-11 (11738290_x_at) / Fold change /veh KRTAP10-11 (11738290_x_at) / RFU MYO3A (11730013_a_at) / Fold change /veh MYO3A (11730013_a_at) / RFU EBF3 (11725865_a_at) / Fold change /veh EBF3 (11725865_a_at) / RFU CAMK2N1 (11719241_x_at) / Fold change /veh CAMK2N1 (11719241_x_at) / RFU C5orf56 (11738088_a_at) / Fold change /veh C5orf56 (11738088_a_at) / RFU OLFML3 (11715873_a_at) / Fold change /veh OLFML3 (11715873_a_at) / RFU LOC100653217 /// NTM (11731650_a_at) / Fold change /veh LOC100653217 /// NTM (11731650_a_at) / RFU MAPK11 (11762145_a_at) / Fold change /veh MAPK11 (11762145_a_at) / RFU FIZ1 (11724087_x_at) / Fold change /veh FIZ1 (11724087_x_at) / RFU OASL (11726364_x_at) / Fold change /veh OASL (11726364_x_at) / RFU SOX15 (11748057_x_at) / Fold change /veh SOX15 (11748057_x_at) / RFU CD79A (11719716_a_at) / Fold change /veh CD79A (11719716_a_at) / RFU HIST1H1D (11736915_at) / Fold change /veh HIST1H1D (11736915_at) / RFU CASKIN2 (11723855_a_at) / Fold change /veh CASKIN2 (11723855_a_at) / RFU LOC730098 (11760151_x_at) / Fold change /veh LOC730098 (11760151_x_at) / RFU OR4N2 (11742367_at) / Fold change /veh OR4N2 (11742367_at) / RFU PRRT2 (11749266_a_at) / Fold change /veh PRRT2 (11749266_a_at) / RFU SNX32 (11753110_a_at) / Fold change /veh SNX32 (11753110_a_at) / RFU CDHR5 (11726645_a_at) / Fold change /veh CDHR5 (11726645_a_at) / RFU RCAN1 (11760418_a_at) / Fold change /veh RCAN1 (11760418_a_at) / RFU FAM167A (11723789_a_at) / Fold change /veh FAM167A (11723789_a_at) / RFU FAM26E (11764081_at) / Fold change /veh FAM26E (11764081_at) / RFU ISYNA1 (11749810_s_at) / Fold change /veh ISYNA1 (11749810_s_at) / RFU ACY1 (11761880_at) / Fold change /veh ACY1 (11761880_at) / RFU 11764098_at / Fold change /veh 11764098_at / RFU SAMD14 (11745864_x_at) / Fold change /veh SAMD14 (11745864_x_at) / RFU NPB (11741838_a_at) / Fold change /veh NPB (11741838_a_at) / RFU TMPRSS6 (11731388_a_at) / Fold change /veh TMPRSS6 (11731388_a_at) / RFU KRTAP10-2 (11738614_at) / Fold change /veh KRTAP10-2 (11738614_at) / RFU ARHGAP8 /// PRR5-ARHGAP8 (11727945_x_at) / Fold change /veh ARHGAP8 /// PRR5-ARHGAP8 (11727945_x_at) / RFU KRTAP5-7 /// NADSYN1 (11734609_at) / Fold change /veh KRTAP5-7 /// NADSYN1 (11734609_at) / RFU RASL12 (11751679_a_at) / Fold change /veh RASL12 (11751679_a_at) / RFU CDKN2B (11736163_a_at) / Fold change /veh CDKN2B (11736163_a_at) / RFU PRF1 (11729649_at) / Fold change /veh PRF1 (11729649_at) / RFU, ZNF638 /// ZNF638-IT1 / Fold change vs veh, ZNF638 /// ZNF638-IT1 / RFU, PANK3 / Fold change vs veh, PANK3 / RFU, SH3YL1 / Fold change vs veh, SH3YL1 / RFU, ZEB2 / Fold change vs veh, ZEB2 / RFU, NRIP1 / Fold change vs veh, NRIP1 / RFU, PTTG1IP / Fold change vs veh, PTTG1IP / RFU, CAPN2 / Fold change vs veh, CAPN2 / RFU, MED14 / Fold change vs veh, MED14 / RFU, SNORA58 / Fold change vs veh, SNORA58 / RFU, C1orf63 / Fold change vs veh, C1orf63 / RFU, LRRFIP1 / Fold change vs veh, LRRFIP1 / RFU, NDUFAF7 / Fold change vs veh, NDUFAF7 / RFU, SLC12A2 / Fold change vs veh, SLC12A2 / RFU, IBTK / Fold change vs veh, IBTK / RFU, ESF1 / Fold change vs veh, ESF1 / Fold change vs veh, TMEM50B / RFU, TAOK1 / Fold change vs veh, TAOK1 / RFU, ACBD3 / Fold change vs veh, ACBD3 / RFU, TMA16 / Fold change vs veh, TMA16 / RFU, RWDD3 / Fold change vs veh, RWDD3 / RFU, BCAT1 / Fold change vs veh, BCAT1 / RFU, EDEM3 / Fold change vs veh, EDEM3 / RFU, TMEM33 / Fold change vs veh, TMEM33 / RFU, WDR75 / Fold change vs veh, WDR75 / RFU, AHCTF1 / Fold change vs veh, AHCTF1 / RFU, TFRC / Fold change vs veh, TFRC / RFU, ZDHHC17 / Fold change vs veh, ZDHHC17 / RFU, NOM1 / Fold change vs veh, NOM1 / RFU, ARL8B / Fold change vs veh, ARL8B / RFU, ZBTB11 / Fold change vs veh, ZBTB11 / RFU, TAMM41 / Fold change vs veh, TAMM41 / RFU, KIAA1704 /// LOC100996395 / Fold change vs veh, KIAA1704 /// LOC100996395 / RFU, ING1 / Fold change vs veh, ING1 / RFU, TRMT61B / Fold change vs veh, TRMT61B / RFU, FUBP3 / Fold change vs veh, FUBP3 / RFU, TP53 / Fold change vs veh, TP53 / RFU, TNKS2 / Fold change vs veh, TNKS2 / RFU, ZFP14 / Fold change vs veh, ZFP14 / RFU, ACTR2 / Fold change vs veh, ACTR2 / RFU, PPP3R1 / Fold change vs veh, PPP3R1 / RFU, PIK3R1 / Fold change vs veh, PIK3R1 / RFU, HNRNPA1 / Fold change vs veh, HNRNPA1 / RFU, RNF170 / Fold change vs veh, RNF170 / RFU, ZNF28 / Fold change vs veh, ZNF28 / RFU, RNGTT / Fold change vs veh, RNGTT / RFU, OGT / Fold change vs veh, OGT / RFU, BRD1 / Fold change vs veh, BRD1 / RFU, MARS / Fold change vs veh, MARS / RFU, ZNF655 / Fold change vs veh, ZNF655 / RFU, FAHD1 / Fold change vs veh, FAHD1 / RFU, BDP1 / Fold change vs veh, BDP1 / RFU, LRRCC1 / Fold change vs veh, LRRCC1 / RFU, ARID1A / Fold change vs veh, ARID1A / RFU, ZNF146 / Fold change vs veh, ZNF146 / RFU, ZNF330 / Fold change vs veh, ZNF330 / RFU, GPN3 / Fold change vs veh, GPN3 / RFU, C9orf123 / Fold change vs veh, C9orf123 / RFU, N4BP2L2 / Fold change vs veh, N4BP2L2 / RFU, ARFIP1 / Fold change vs veh, ARFIP1 / RFU, FAM179B / Fold change vs veh, FAM179B / RFU, BCL10 / Fold change vs veh, BCL10 / RFU, UHRF1BP1L / Fold change vs veh, UHRF1BP1L / RFU, BET1 / Fold change vs veh, BET1 / RFU, CNOT2 / Fold change vs veh, CNOT2 / RFU, ZNF268 / Fold change vs veh, ZNF268 / Fold change vs veh, ZNF507 / RFU, DGCR2 / Fold change vs veh, DGCR2 / RFU, WDSUB1 / Fold change vs veh, WDSUB1 / Fold change vs veh, HSP90B1 /// MIR3652 / RFU, ADSS / Fold change vs veh, ADSS / RFU, GK / Fold change vs veh, GK / RFU, ZNF148 / Fold change vs veh, ZNF148 / RFU, TAF9 / Fold change vs veh, TAF9 / RFU, SLC1A5 / Fold change vs veh, SLC1A5 / RFU, SLMO2 / Fold change vs veh, SLMO2 / RFU, ABCC4 / Fold change vs veh, ABCC4 / RFU, LOC101060439 /// RAP1B / Fold change vs veh, LOC101060439 /// RAP1B / RFU, RFX7 / Fold change vs veh, RFX7 / RFU, GTPBP10 / Fold change vs veh, GTPBP10 / RFU, CNEP1R1 / Fold change vs veh, CNEP1R1 / RFU, BIVM-ERCC5 /// ERCC5 / Fold change vs veh, BIVM-ERCC5 /// ERCC5 / RFU, ILF3 / Fold change vs veh, ILF3 / RFU 11762660_at / Fold change /veh 11762660_at / RFU VCAN (11757783_s_at) / Fold change /veh VCAN (11757783_s_at) / RFU DDX43 (11728927_at) / Fold change /veh DDX43 (11728927_at) / RFU KRT8 (11758188_x_at) / Fold change /veh KRT8 (11758188_x_at) / RFU NKD1 (11759106_at) / Fold change /veh NKD1 (11759106_at) / RFU SRD5A1 (11742802_a_at) / Fold change /veh SRD5A1 (11742802_a_at) / RFU TPSAB1 /// TPSB2 (11721975_s_at) / Fold change /veh TPSAB1 /// TPSB2 (11721975_s_at) / RFU GSTM3 (11746129_a_at) / Fold change /veh GSTM3 (11746129_a_at) / RFU IL23R (11737362_x_at) / Fold change /veh IL23R (11737362_x_at) / RFU TMEM51 (11727254_a_at) / Fold change /veh TMEM51 (11727254_a_at) / RFU PIWIL2 (11732686_x_at) / Fold change /veh PIWIL2 (11732686_x_at) / RFU ORM1 (11744905_x_at) / Fold change /veh ORM1 (11744905_x_at) / RFU CCDC152 (11743942_at) / Fold change /veh CCDC152 (11743942_at) / RFU ECM1 (11717891_a_at) / Fold change /veh ECM1 (11717891_a_at) / RFU IL23R (11748794_a_at) / Fold change /veh IL23R (11748794_a_at) / RFU TNFAIP8L3 (11732012_x_at) / Fold change /veh TNFAIP8L3 (11732012_x_at) / RFU MBOAT4 (11741988_at) / Fold change /veh MBOAT4 (11741988_at) / RFU 11764193_at / Fold change /veh 11764193_at / RFU TMEM53 (11763286_at) / Fold change /veh TMEM53 (11763286_at) / RFU MAGEB2 (11727129_at) / Fold change /veh MAGEB2 (11727129_at) / RFU TMEM200A (11744735_a_at) / Fold change /veh TMEM200A (11744735_a_at) / RFU CCDC152 (11751479_a_at) / Fold change /veh CCDC152 (11751479_a_at) / RFU FAM211A (11726209_a_at) / Fold change /veh FAM211A (11726209_a_at) / RFU RGS16 (11746705_a_at) / Fold change /veh RGS16 (11746705_a_at) / RFU VCAN (11755009_s_at) / Fold change /veh VCAN (11755009_s_at) / RFU RHOB (11743442_s_at) / Fold change /veh RHOB (11743442_s_at) / RFU RGS16 (11720943_a_at) / Fold change /veh RGS16 (11720943_a_at) / RFU RGS16 (11720944_at) / Fold change /veh RGS16 (11720944_at) / RFU, VPS4B / Fold change vs veh, VPS4B / RFU, CREB1 / Fold change vs veh, CREB1 / RFU, DNAJC13 / Fold change vs veh, DNAJC13 / RFU, GNAQ / Fold change vs veh, GNAQ / RFU, CDK5R1 / Fold change vs veh, CDK5R1 / RFU, ZRANB3 / Fold change vs veh, ZRANB3 / RFU, CUL4A / Fold change vs veh, CUL4A / RFU, CCNY / Fold change vs veh, CCNY / RFU, UFL1 / Fold change vs veh, UFL1 / RFU, COG3 / Fold change vs veh, COG3 / RFU, DIAPH2 / Fold change vs veh, DIAPH2 / RFU, SKA2 / Fold change vs veh, SKA2 / RFU, AFF3 / Fold change vs veh, AFF3 / RFU, LMF1 / Fold change vs veh, LMF1 / RFU, IPO11 / Fold change vs veh, IPO11 / RFU, DFFB / Fold change vs veh, DFFB / RFU, FOXP1 / Fold change vs veh, FOXP1 / RFU, CARD8 / Fold change vs veh, CARD8 / RFU, STRN3 / Fold change vs veh, STRN3 / RFU, ADK / Fold change vs veh, ADK / RFU, RASSF2 / Fold change vs veh, RASSF2 / RFU, WIPF1 / Fold change vs veh, WIPF1 / RFU, LARP1B / Fold change vs veh, LARP1B / RFU, RASA1 / Fold change vs veh, RASA1 / RFU, RB1 / Fold change vs veh, RB1 / RFU, PPFIA1 / Fold change vs veh, PPFIA1 / RFU, MAT2A / Fold change vs veh, MAT2A / RFU, CCT5 / Fold change vs veh, CCT5 / RFU, WDR92 / Fold change vs veh, WDR92 / RFU, CUX1 / Fold change vs veh, CUX1 / RFU, TTC7A / Fold change vs veh, TTC7A / RFU, TMEM135 / Fold change vs veh, TMEM135 / RFU, DEPTOR / Fold change vs veh, DEPTOR / RFU, CPM / Fold change vs veh, CPM / RFU, DNAJB6 / Fold change vs veh, DNAJB6 / RFU, CACNA2D3 / Fold change vs veh, CACNA2D3 / RFU, DTX4 / Fold change vs veh, DTX4 / RFU, TFCP2 / Fold change vs veh, TFCP2 / RFU, GMCL1 /// GMCL1P1 / Fold change vs veh, GMCL1 /// GMCL1P1 / RFU, AEBP2 / Fold change vs veh, AEBP2 / RFU, SNHG1 /// SNORD22 /// SNORD25 /// SNORD26 /// SNORD27 /// SNORD28 /// SNORD29 /// SNORD31 / Fold change vs veh, SNHG1 /// SNORD22 /// SNORD25 /// SNORD26 /// SNORD27 /// SNORD28 /// SNORD29 /// SNORD31 / Fold change (Aza/veh), C12orf56 (ProbeSet 11735607_a_at) / Fold change (ACY-1035/veh), C12orf56 (ProbeSet 11735607_a_at) / Fold change (Aza/veh), FGFR1OP (ProbeSet 11751329_s_at) / Fold change (ACY-1035/veh), FGFR1OP (ProbeSet 11751329_s_at) / Fold change (Aza/veh), VPS36 (ProbeSet 11739960_a_at) / Fold change (ACY-1035/veh), VPS36 (ProbeSet 11739960_a_at) / RFU SYPL1 (11715823_x_at) / Fold change /veh SYPL1 (11715823_x_at) / RFU IGFBP7 (11715501_s_at) / Fold change /veh IGFBP7 (11715501_s_at) / RFU REEP3 (11722064_at) / Fold change /veh REEP3 (11722064_at) / RFU IGLL1 (11728026_x_at) / Fold change /veh IGLL1 (11728026_x_at): dose or concentration left out as unconfirmed
Settings: MV-4-11 cells, 48 hours

Compound: Nc1ncn([C@@H]2O[C@H](CO)[C@@H](O)[C@H]2O)c(=O)n1 [azacitidine]
- RFU TNFAIP8L3 (11732012_x_at): 9.37 RFU
